Laboratory results as given in patent US20150113681A1, “COMPOSITION AND METHOD FOR ENHANCING PLANT TRANSFORMATION” (SYNGENTA PARTICIPATIONS AG, priority 2013, published 2015).

What was measured:
maize immature embryos [1] = assay: Maize transformation, glyphosate/EPSPS selection with differing sucrose levels in selection media; format: cell-based, Zea mays (corn); settings: glyphosate selection
Description: (§1) Transformation of immature maize embryos is performed essentially as described in Negrotto et al., (2000) Plant Cell Reports 19: 798-803. Various media constituents described therein can be substituted. For example, the selectable marker gene and the selection agent can be modified, as in the examples below.
(§2) The genes used for transformation are cloned into a vector suitable for maize transformation as described above. Vectors used contain the either the PAT gene or the EPSPS gene as a selectable marker. PAT confers resistance to bialaphose, and EPSPS confers resistance to glyphosate.
(§3) Preparation of Agrobacterium tumefaciens: Agrobacterium strain LBA4404 (pSB1) containing the plant transformation plasmid is grown on YPC (yeast extract (5 g/L), peptone (10 g/L), NaCl (5 g/L), CaCl2.2H2O (1 g/L), 15 g/l agar, pH 6.8) solid medium for 2 to 4 days at 28° C. Approximately 0.8×10^9 Agrobacteria are suspended in inoculation medium supplemented with 100 μM acetosyringone (As) Bacteria are pre-induced in this medium for about 20 to 240 minutes.
(§4) Inoculation: Immature embryos from are excised from 8-12 day old ears after pollination. The isolated mixture of endosperms with immature embryos are suspended in the inoculation medium and poured through a 1500 um sieve after shaking. The immature embryos are captured on a 380 um sieve after pouring the suspension through. Immature embryos are gently removed from the sieve and suspended in Agrobacterium suspension on co-cultivation medium using a sterile scalpel blade after 5 min 45° C. heat shock. The immature embryo suspension is spread evenly on the co-cultivation medium and the excess Agrobacterium suspension is removed using a sterile transfer pipette and filter papers. The immature embryos are then spaced and flipped with round scutellum side up and then cultured in the dark for two to three days. Subsequently, between 20 and 45 embryos per petri plate are transferred to the medium AW5Dicamba100Ti and cultured in the dark for 28° C. for 10-14 days for callus induction.
Following co-cultivation and callus induction, the transformed calli are step-wisely selected on MS medium or MS medium contained differing concentrations of sucrose (5, 10 and 20, g/l) and glyphosate (2 mg/l) as indicated in Table 2.
In one embodiment of the present invention, in an incubation selection period referred to in Table 2 as S1, 10-20 calli from callus induction medium were transferred onto selection medium S1 and cultured for approximately 2 weeks at 28° C. in the dark. Each callus is originated from an immature embryo.
For the selection period referred to as S2, about 9 to 10 calli cultured in selection step S1 were transferred to each plate containing selection medium S2 and then cultured for approximately 2 weeks at 28° C. in dark.
For the selection period referred to as S3, about 9 to 10 calli cultured in selection period S2 were transferred to selection medium of selection period S3 containing 20 g/l sucrose and 2 mM glyphosate. and cultured for approximately 2 weeks at 28° C. in the dark.
In another embodiment and referring to Table 2, about 10 to 20 calli per plate from callus induction medium were transferred onto selection medium of selection period S1. and cultured for approximately 2-3 weeks at 28° C. in the dark. Each callus was originated from an immature embryo. About 9 to 10 calli per plates were transferred to selection medium of selection period S2. and cultured for approximately 2 weeks at 28° C. in the dark.
Regeneration of Transformed Plants: Glyphosate-resistant embryogenic callus were selected under dissecting microscope and 4 embryogenic calli per plate were transferred to regeneration medium. and cultured for approximately 2 weeks at 28° C. in the dark. The cultures were subsequently transferred to a light room for 14 days at 25° C. with a 16 hour photoperiod. […]

sugarcane callus = assay: Sugarcane transformation, glyphosate/EPSPS selection with differing sucrose levels in selection media; format: cell-based, sugarcane (Saccharum)
Description: The method of the present invention includes embryogenic responses initiated and/or cultures established from sugar cane young leave rolls by culturing on callus induction medium. Established embryogenic cultures were weighted, and then inoculated and co-cultivated with the Agrobacterium tumefaciens strain EHA101 (Agrobacterium) containing the desired vector construction. Agrobacterium was cultured from glycerol stocks on solid YPC medium (100 mg/L spectinomycin and any other appropriate antibiotic) for about two days at 28° C. Agrobacterium is re-suspended in liquid MS-D2 medium. The Agrobacterium culture was diluted to an OD600 of 0.3-0.4 and acetosyringone is added to a final concentration of 400 uM. Acetosyringone was added before mixing the solution with the sugar cane cultures to induce Agrobacterium for DNA transfer to the plant cells. For inoculation, the cultures were immersed in the bacterial suspension. The liquid bacterial suspension is removed and the inoculated cultures were placed on empty plate for co-cultivation and incubated at 22° C. for two days. The cultures were then transferred to callus induction medium with Ticarcillin (400 mg/liter) to inhibit the growth of Agrobacterium and cultured for 4-10 days at 28° C. in dark. Referring to Table 3 below, for constructs utilizing the EPSPS selectable marker gene, cultures are transferred to selection S1 medium containing glyphosate as the selection agent and 400 mg/liter Ticarcillin and cultured for 3-4 weeks in the dark. For different treatments, the concentration of sucrose varied from 0 to 30 g/l and glyphosate level varied from 0.1 to 5 mM. […] Resistant colonies were then transferred to regeneration medium, and grown in the dark for 7 days, and then moved to the light growth room for 14 days. Regenerated shoots were transferred Rooting media for 3-4 weeks and then moved to the greenhouse when they are large enough and have adequate roots. Plants are transplanted to soil in the greenhouse (To generation), and grown to maturity.

maize immature embryos [2] = assay: Maize transformation, bialaphos/PAT selection with differing sucrose levels in selection media; format: cell-based, Zea mays (corn)
Description: as §1, §2, §3, §4
Following co-cultivation and callus induction, the transformed calli are step-wise selected on MS medium or MS medium containing alternating concentrations of sucrose (5, 10 and 20, g/l) and bialaphos (5 and 7.5 mg/l) as indicated in Table 1. The controls comprise calli selected on MS medium supplemented with 20 g/l sucrose and 5 or 7.5 mg/l bialaphos for 4 to 6 weeks at 2 to 3 week intervals.
In a first selection period referred to in Table 1 as 51, about 10-20 calli are transferred from callus induction medium comprising 30 g/L sucrose onto 51 medium MS medium contained 5 g/l sucrose and 7.5 mg/l bialaphos and cultured for approximately 2 weeks at 28° C. in the dark. Each callus was originated from an immature embryo. For the second selection period, referred to in Table 1 as S2, about 9 to 10 calli of 51 are transferred to each plate containing S2 medium comprising 10 g/l sucrose and 7.5 mg/l bialaphose and then cultured for approximately 2 weeks at 28° C. in dark. For the third selection period referred to as S3, 9 to 10 calli are transferred from each S2 plate to S3 medium contained 20 g/l sucrose and 5 mg/l bialaphos and cultured for approximately 2 weeks at 28° C. in dark.
In another embodiment of the invention, in the first selection period S1 about 10 to 20 calli from each plate were transferred from callus induction medium comprising 30 g/L sucrose onto S1 medium containing 10 g/L of sucrose and 7.5 mg/l bialaphos and cultured for approximately 3 weeks at 28° C. in the dark. Each callus was originated from an immature embryo. 9 to 10 calli per plate were transferred from the S1 medium to S3 medium containing 20 g/L of sucrose and cultured for 2 weeks at 28° C. in dark. […]

[3] = control, 20 g/L sucrose, bialaphos selection

## OC[C@H]1O[C@@](CO)(O[C@H]2O[C@H](CO)[C@@H](O)[C@H](O)[C@H]2O)[C@@H](O)[C@@H]1O [sucrose]
Maize immature embryos [1]; sucrose 5 g/L in S2 followed by 20 g/L in S3
  regeneration frequency: 87.4%
Maize immature embryos [1]; sucrose 5 g/L in second round (S2) followed by 20 g/L in third round (S3)
  frequency of independent stable transgenic events (transformation frequency): 29.5%
Maize immature embryos [1]; sucrose 10 g/L in S2 followed by 20 g/L in S3
  regeneration frequency: 86.4%
Maize immature embryos [1]; sucrose 10 g/L in second round (S2) followed by 20 g/L in third round (S3)
  frequency of independent stable transgenic events: 18.3%
Maize immature embryos [1]; negative control, standard sucrose concentration 20 g/L
  frequency of independent stable transgenic events: 4.8%
Maize immature embryos [1]; negative control, sucrose 20 g/L
  regeneration frequency: 7.9%
Sugarcane callus; altering sucrose level and adjusting glyphosate concentration in step-wise selection
  transformation frequency: > 7 % per gram fresh tissue
Sugarcane callus; standard control, MS medium with 30 g/l sucrose and 3 mM glyphosate
  recovery of transgenic plants: no transgenic plants were recovered
Sugarcane callus; sucrose concentration reduced to 5 g/l in selection medium
  transformation frequency: 2.4 % per gram of fresh tissues
Sugarcane callus; sucrose concentration reduced to 10 and 15 g/l
  transformation frequency: improved
Maize immature embryos [2]; 5 and 10 g/L sucrose in S1 bialaphos selection
  regeneration frequency: more than 65%
Maize immature embryos [2]; 5 g/L sucrose in S1 bialaphos selection vs 20 g/L control
  transformation frequency increase compared to the control: 3.1 fold
Maize immature embryos [2]; 5 g/L sucrose in bialaphos selection media, first round of selection (S1)
  transformation frequency: 23.5%
Maize immature embryos [2]; 5 g/L sucrose, bialaphos selection
  escape rate: 2.4%
Maize immature embryos [2]; 10 g/L sucrose in S1 bialaphos selection vs 20 g/L control
  transformation frequency increase compared to the control: 2.2 fold
Maize immature embryos [2]; 10 g/L sucrose in bialaphos selection media, first round of selection (S1)
  transformation frequency: 16.9%
Maize immature embryos [2]; [3]
  escape rate: 11.8%
  regeneration frequency: 37.4%
  transformation frequency: 7.6%
